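48-hour exposure; five concentrations; linearly interpolated endpoints. Definition used: TGI = concentration required for complete inhibition of growth.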
Columns and labels:
Test in all cases: DTP human tumour cell line panel, 48 h
MOLT-4 leukemia = tested on: MOLT-4 leukemia
SK-MEL-28 melanoma = tested on: SK-MEL-28 melanoma
HOP-92 NSCLC = tested on: HOP-92 NSCLC
SK-MEL-2 melanoma = tested on: SK-MEL-2 melanoma
T-47D breast = tested on: T-47D breast
OVCAR-8 ovarian = tested on: OVCAR-8 ovarian
NCI-H522 lung = tested on: NCI-H522 lung
K-562 leukemia = tested on: K-562 leukemia
SN12C renal = tested on: SN12C renal
RXF 393 renal = tested on: RXF 393 renal
ACHN renal = tested on: ACHN renal
SNB-19 CNS = tested on: SNB-19 CNS
HL-60(TB) leukemia = tested on: HL-60(TB) leukemia
DU-145 prostate = tested on: DU-145 prostate
UACC-257 melanoma = tested on: UACC-257 melanoma
PC-3 prostate = tested on: PC-3 prostate
HT29 colon = tested on: HT29 colon
SF-268 CNS = tested on: SF-268 CNS
MDA-MB-435 = tested on: MDA-MB-435
RPMI-8226 leukemia = tested on: RPMI-8226 leukemia
HCT-15 colon = tested on: HCT-15 colon
CAKI-1 renal = tested on: CAKI-1 renal
OVCAR-5 ovarian = tested on: OVCAR-5 ovarian
M14 melanoma = tested on: M14 melanoma
SK-MEL-5 melanoma = tested on: SK-MEL-5 melanoma
A549 NSCLC = tested on: A549 NSCLC
LOX IMVI melanoma = tested on: LOX IMVI melanoma
EKVX NSCLC = tested on: EKVX NSCLC
UO-31 renal = tested on: UO-31 renal
786-0 renal = tested on: 786-0 renal
SF-539 CNS = tested on: SF-539 CNS
COLO 205 colon = tested on: COLO 205 colon
SNB-75 CNS = tested on: SNB-75 CNS
SF-295 CNS = tested on: SF-295 CNS
UACC-62 melanoma = tested on: UACC-62 melanoma
BT-549 breast = tested on: BT-549 breast
HCT-116 colon = tested on: HCT-116 colon
SK-OV-3 ovarian = tested on: SK-OV-3 ovarian
NCI/ADR-RES ovarian = tested on: NCI/ADR-RES ovarian
MALME-3M melanoma = tested on: MALME-3M melanoma
SW-620 colon = tested on: SW-620 colon
MDA-N = tested on: MDA-N
NCI-H23 lung = tested on: NCI-H23 lung
U251 CNS = tested on: U251 CNS
A498 renal = tested on: A498 renal
NCI-H460 lung = tested on: NCI-H460 lung
NCI-H226 lung = tested on: NCI-H226 lung
TK-10 renal = tested on: TK-10 renal
OVCAR-3 ovarian = tested on: OVCAR-3 ovarian
CCRF-CEM leukemia = tested on: CCRF-CEM leukemia
KM12 colon = tested on: KM12 colon
HOP-62 NSCLC = tested on: HOP-62 NSCLC
MDA-MB-231 breast = tested on: MDA-MB-231 breast
OVCAR-4 ovarian = tested on: OVCAR-4 ovarian

Measured: TGI

O=C1CC(c2ccc[nH]2)=NN1c1ccccc1
85.5 µM: MOLT-4 leukemia
> 100 µM: all other assays above

— PubChem BioAssay (NCI)
